Converted amounts (≈) assume the structure as drawn.
Legend:
rat P2X7 = target: T1, rat P2X7 (Rattus norvegicus, UniProt Q64663); assay: ATP/BzATP-induced YoPro-1 dye uptake assay, rat P2X7; assay type: cell-based
T1 construct: expressed in transfected cells; host or cells: HEK-293 cells stably expressing rat P2X7-GFP (patch clamp)
T1 sequence (Q64663 1-595): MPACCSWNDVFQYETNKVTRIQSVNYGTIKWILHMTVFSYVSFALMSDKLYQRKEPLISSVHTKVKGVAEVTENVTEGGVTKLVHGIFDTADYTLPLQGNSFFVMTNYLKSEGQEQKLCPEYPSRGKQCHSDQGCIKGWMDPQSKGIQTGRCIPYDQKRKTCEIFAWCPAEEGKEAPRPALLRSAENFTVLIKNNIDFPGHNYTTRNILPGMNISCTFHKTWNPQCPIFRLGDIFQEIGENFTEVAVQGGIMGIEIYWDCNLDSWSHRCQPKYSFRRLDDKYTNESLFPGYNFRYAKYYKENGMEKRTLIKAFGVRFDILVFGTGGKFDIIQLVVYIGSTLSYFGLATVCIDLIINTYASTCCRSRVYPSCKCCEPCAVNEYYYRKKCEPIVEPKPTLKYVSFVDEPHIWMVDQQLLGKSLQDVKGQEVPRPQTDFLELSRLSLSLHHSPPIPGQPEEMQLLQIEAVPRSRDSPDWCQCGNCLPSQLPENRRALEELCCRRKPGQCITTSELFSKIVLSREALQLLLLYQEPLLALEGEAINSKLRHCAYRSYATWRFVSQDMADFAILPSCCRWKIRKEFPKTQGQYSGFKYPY
Procedure: 1321N1 astrocytoma cells and HEK-293 cells were cultured (at 37°C, 5% CO2) in Dulbecco’s modified Eagle’s medium (DMEM/F-12 with Glutamax) supplemented with 10% foetal bovine serum (FBS) and 200 unit/ml of penicillin and streptomycin antibiotics (Fisher Scientific). For stable cell line generation, cells were transfected using FuGene HD Transfection Reagent (Promega) according to the manufacturer’s protocol with plasmids encoding either human P2X4 with a C-terminal (His)10 tag ([Young et al., 2008]), human P2X7 with a C-terminal EYMPME tag (kindly provided by R.A. North) or rat P2X7 C-terminally tagged with a GFP-(His)8 tag, generated by PCR amplification of the coding sequence for rat P2X7 from a pcDNA-based expression vector ([Young et al., 2007]), adding XhoI and EcoRI sites at the 5′- and 3′- ends respectively, followed by restriction digestion and ligation into a zebrafish P2X4-GFP expression vector based on pEGFP-C1 (kindly provided by Eric Gouaux; [Kawate and Gouaux, 2006]) to replace the zebrafish P2X4 coding region with rP2X7. Transfected clones were grown in DMEM/F-12 with Glutamax medium supplemented with G-418 (Geneticin®, Fisher Scientific), 600 μg/ml and 150 μg/ml during selection and maintenance respectively. […] HEK-293 cells stably expressing human P2X7 ([Adinolfi et al., 2010]) were a kind gift from Elena Adinolfi.
Cells were plated as for the calcium influx assay (Section 2.4). Culture medium was replaced with low divalent cation containing extracellular solution (ECS-LD; 147 mM NaCl, 10 mM HEPES, 13 mM Glucose, .2 mM CaCl2, 2 mM KCl. pH = 7.4 in MilliQ water) and 5 μM Yopro-1. […] The baseline was measured with a BMG Clariostar instrument for 5–10 cycles, followed by addition of ATP (or BzATP) and recording for at least 30 further cycles (approx. 1 min per data point). The collected responses were normalized to the first data-point recorded after ATP addition. The initial gradient of the dye uptake curve was used to calculate the response to ATP.
In order to confirm GP-25 as a competitive (orthosteric) antagonist, BzATP concentration-response curves (ranging between 300 μM and .03 µM) were constructed for rat P2X7-GFP in the YoPro-1 uptake assay in the presence of increasing concentrations of GP-25 (Figure 3A).

human P2X4 = target: T2, human P2X4 (Homo sapiens, UniProt Q99571); assay: Fluo-4 ATP-induced calcium influx assay; assay type: cell-based; settings: 10 µM compound; 1.2 µM ATP; 1321N1 cells
T2 construct: expressed in transfected cells
T2 sequence (Q99571 1-388): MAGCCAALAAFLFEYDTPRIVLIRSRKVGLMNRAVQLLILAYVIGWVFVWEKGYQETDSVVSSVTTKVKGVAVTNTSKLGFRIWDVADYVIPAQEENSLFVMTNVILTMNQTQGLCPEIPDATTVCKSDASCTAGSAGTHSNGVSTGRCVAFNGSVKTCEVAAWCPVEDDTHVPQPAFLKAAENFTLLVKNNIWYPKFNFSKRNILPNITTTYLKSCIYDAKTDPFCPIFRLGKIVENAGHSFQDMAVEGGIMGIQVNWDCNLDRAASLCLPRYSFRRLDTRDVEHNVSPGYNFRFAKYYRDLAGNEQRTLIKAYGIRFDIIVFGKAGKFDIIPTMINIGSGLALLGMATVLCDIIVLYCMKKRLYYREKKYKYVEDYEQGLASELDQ
Procedure: 1321N1 astrocytoma cells and HEK-293 cells were cultured (at 37°C, 5% CO2) in Dulbecco’s modified Eagle’s medium (DMEM/F-12 with Glutamax) supplemented with 10% foetal bovine serum (FBS) and 200 unit/ml of penicillin and streptomycin antibiotics (Fisher Scientific). […]
Cells were plated the day before assay into poly-lysine-coated 96-well plates at 40–65,000 cells/ml. […] A Fluoroskan Ascent FL plate reader (Fisher Scientific) equipped with a solution dispenser and an appropriate filter pair (excitation: 485 nm, emission: 538 nm) was used to record 5 s baseline followed by P2X4-mediated calcium influx measurements for 20–25 s after ATP stimulation (20 μL injection of solutions dissolved in modified Ringer’s buffer).
The antagonist activity of the 17 compounds (applied at 10 µM) was assayed initially on 1321N1 astrocytoma cells stably expressing human P2X4 receptors by measuring the ATP-induced (applied at 1.2 µM) increase in Fluo-4 fluorescence due to calcium influx via P2X4, using 2 µM BX430 as a positive control (Figure 1A). […] The ATP-induced rate of uptake of YoPro-1 dye was measured upon application of at 300 µM ATP, using .1 µM A740003 as a positive control (Figure 1B).

Solubility observations = assay type: physicochemical; settings: read-out: maximum concentration that could be applied (due to solubility issues)

COC(=O)C1=C(C)NC2=C(C(=O)c3ccccc32)C1c1cc(Br)ccc1OCC(=O)O (stereo not drawn) [Compound 9, (4-bromo-2-(3-(methoxycarbonyl)-2-methyl-5-oxo-4,5-dihydro-1H-indeno(1,2-b)pyridine-4-yl)phenoxy)acetic acid]
Schild plot slope (rat P2X7; BzATP concentration-response curves, rat P2X7-GFP, increasing GP-25 up to 100 µM): 1.004 ± .2584
mode of antagonism (Schild analysis) (rat P2X7; BzATP, rat P2X7-GFP, YoPro-1): competitive (orthosteric) antagonism
IC50 (rat P2X7; YoPro-1 uptake, 300 µM ATP): 24.4 µM
inhibition at 30 µM (rat P2X7; approx. % inhibition at 30 μM compound, 300 µM ATP, YoPro-1 uptake, rat P2X7-GFP, read-out: % Inhibition at rP2X7): 47%
antagonist activity at human P2X4 (human P2X4): no activity
solubility (Solubility observations): 100 µM (≈ 48.4 µg/mL)
